Results as given in ChEMBL document CHEMBL3046410, “Antioxidant activities and transition metal ion chelating studies of some hydroxyl Schiff base derivatives” (Med Chem Res, 2012).
Activity calls are given as the source filed them. No cut-off for these calls is given here.

Key:
[1] = Binding affinity to Cu2+; type: physicochemical
[2] = Antioxidant activity assessed as Cu2+ quenching activity; type: functional
[3] = Antioxidant activity assessed as inhibition of ABTS free radical; type: functional
[4] = Antioxidant activity assessed as Fe2+ quenching activity; type: functional
[5] = tested on: Radical scavenging activity; assay: Antioxidant activity assessed as inhibition of DPPH free radical; type: functional
[6] = Binding affinity to Fe2+
[7] = Antioxidant activity assessed as Fe2+ chelating activity by fluorescence spectroscopy; type: functional
[8] = Antioxidant activity assessed as Cu2+ chelating activity by fluorescence spectroscopy; type: functional

Compound	Ka [1]	KSV [2]	IC50 [3]	KSV [4]	IC50 [5]	Ka [6]	Activity [7]	Activity [8]
Oc1ccc(/N=C/C=C/c2ccccc2)cc1	1.45 ×10⁴ /M	2.49 ×10³ /M	4.93 µM	6.6 ×10³ /M	399 µM	2.47 ×10⁴ /M		
Oc1cccc(/N=C/c2ccccc2O)c1	3.02 ×10³ /M	1.1 ×10⁵ /M	3.68 µM	2.61 ×10⁴ /M	407 µM	3.21 ×10³ /M		
Oc1ccc(/N=C/c2ccccc2O)cc1	4.43 ×10³ /M	7.21 ×10⁴ /M	4.68 µM	1.43 ×10⁵ /M	107 µM	9.67 ×10³ /M		
Oc1ccc(/N=C/c2ccco2)cc1	0.85 ×10³ /M	1.17 ×10³ /M	6.14 µM	0.9 ×10³ /M	50.2 µM	1.81 ×10³ /M		
Oc1cccc(/N=C/C=C/c2ccccc2)c1	3.51 ×10³ /M	2.8 ×10³ /M	3.99 µM	8.91 ×10³ /M	143 µM	6.25 ×10³ /M		
Oc1ccc(/N=C/c2ccccc2)cc1 [4-(BENZYLIDENEAMINO)PHENOL]	3.17 ×10³ /M	3.49 ×10³ /M	6.03 µM	4.09 ×10³ /M	71.5 µM	1.62 ×10⁴ /M		
Cc1cc(C(C)(C)C)c(O)c(C(C)(C)C)c1 [BUTYLATED HYDROXYTOLUENE]			37 µM		65.8 µM			
Oc1ccccc1/C=N/c1ccccc1O	1.26 ×10⁴ /M	6.07 ×10⁴ /M	5.16 µM	6.7 ×10⁴ /M	25 µM	6.48 ×10³ /M	Active	Active
CN(C)c1ccc(/C=N/c2ccccc2O)cc1	2.36 ×10⁴ /M	1.53 ×10⁴ /M	7.07 µM	5.19 ×10³ /M	10.8 µM	7.3 ×10⁴ /M		
CN(C)c1ccc(/C=N/c2ccc(O)cc2)cc1	3.05 ×10³ /M	2.69 ×10⁴ /M	4.16 µM	7.4 ×10³ /M	20.8 µM	5.03 ×10³ /M		
Oc1cccc(/N=C/c2ccccc2)c1 [3-(BENZYLIDENEAMINO)PHENOL]	1.39 ×10⁴ /M	5.2 ×10³ /M	33.5 µM	7.03 ×10³ /M	466 µM	1.47 ×10⁴ /M		
